Measurements taken from patent US20160106695A1, “PETROSELINIC ACID OR A COMBINATION OF ACTIVE INGREDIENTS COMPRISING AT LEAST PETROSELINIC ACID FOR PROMOTING WEIGHT LOSS AND/OR WEIGHT MAINTENANCE” (NESTEC SA, priority 2013, published 2016).

System: lipoxin A4 production by mononuclear blood cells
Experiment: Synthesis/release of lipoxin A4 by stimulated (PMA/A23187 + DHA/EPA) mononuclear blood cells, LC-MS quantification
Type: cell-based
Conditions: 30 min pre-incubation, 2 hours of stimulation
Experimental: Mononuclear blood cells are cultured under 5% CO2 and at 37° C. in a serum-free medium for macrophages (SFM Macrophage; Invitrogen 12065074) for 24 hours.
After this step, the medium is replaced with the same fresh test medium also containing the active agents at the various doses for 30 minutes in the presence of the various products to be evaluated, as indicated in the table of results below. The inflammatory response was then triggered in the presence of phorbol myristate (0.05 μM) and calcium ionophore (1 μM) and of a lipid substrate mixture composed of docosahexaenoic acid (DHA—1 μg/mL) and eicosapentaenoic acid (EPA—1 μg/mL).
The supernatants were then collected after 2 hours of stimulation and frozen at −80° C. before preparation for analysis by mass spectrometry.
Experimental triplicates (three wells) were prepared per experimental condition. Into each culture plate was placed a control corresponding to cells stimulated with the PMA/A23187 mixture and/or with addition of the equimolar mixture of fatty acids.
The thawed supernatants were concentrated by solid-phase extraction (SPE) and taken up in methanol before spectrometric analysis. The analytical method used consists in separating the various analytes by high-pressure liquid chromatography as a function of their retention time and in quantifying them by mass spectrometry. […]

Compound	Level of lipoxin A4 production (% modulation relative to the control) (taurine 3.1 mg/ml)	Level of lipoxin A4 production (% modulation relative to the control) (zinc gluconate 0.005 mg/ml) [%]
NCCS(=O)(=O)O [Taurine]	+38%	–
Zinc gluconate	–	−5
